In patent publication US20200093929A1, “PHARMACEUTICAL COMPOSITION FOR THE PREVENTION AND TREATMENT OF MEMORY AND COGNITIVE DEFICITS RELATED TO AGEING” (IGEA PHARMA N.V., priority 2017, published 2020):
Marks after values point to notes of the source that are not given here.

Experiments:
mTOR = mTOR substrate phosphorylation of kinase p70 S6 (mTOR P), western blot and densitometry, N2a cells; format: cell-based, mouse; conditions: 48 h
Experimental: (§1) N2a (ECACC) mouse neuroblastoma cells, plated in the presence of MEM integrated with non-essential amino acids, 10% FCS, antibiotics and glutamine, were exposed for 48 h to micromolar levels of oleuropein aglycone and/or glutathione thioesters (GST), in the presence and in the absence of prefibrillar aggregates of Aβ1-42 peptides (Lambert M, et al. J. Neurochem. 2001, 79:595-605). […] In the control plates (CTRL) the cells were incubated under the same conditions in the presence of the culture medium alone. The following were then evaluated: • the state of cell viability through the MTT reduction test (Pensalfini A et al., Free
(§2) Rad Biol Med 2008, 44: 1624-1636). • the level of mTOR substrate phosphorylation of kinase p70 S6 (mTOR P) by western blot analysis and subsequent densitometry (Grossi C, et al., PLoS ONE 2013, 8: e71702) • the level of intracellular antioxidant capacity (ACi) through hydrosolublescavenger doses in the cellular lysates in chemiluminescence, using • the Pholasin photoprotein (ABEL Antioxidant Test Kit, Knight Scientific Ltd., UK) as reported in Cecchi C., et al. Neurobiol. Aging 28: 863-876, 2007.
(§3) ACi values were correct for the % of viable cells. AP=toxic prefibrillar aggregates.

[1] = test system: N2a (ECACC) mouse neuroblastoma cells; assay: Intracellular antioxidant capacity (ACi) in cell lysates, Pholasin chemiluminescence, N2a cells; format: cell-based; conditions: 48 h, corrected for % viable cells, CTRL 2.60
Experimental: as §1, §2, §3

[2] = test system: N2a (ECACC) mouse neuroblastoma cells; assay: Cell viability by MTT reduction test in N2a cells, with and without Aβ1-42 prefibrillar aggregates; format: cell-based; conditions: for Comparison of the results among glycated oleuropein, oleuropein aglycone and hydroxytyrosol: Example 1 cell experiments; for Comparison of the results among the glutathione thioesters used (cell viability, mTOR P, ACi): micromolar levels, with and without Aβ1-42 aggregates
Experimental: as §1, §2, §3

[3] = as above; format: cell-based, mouse; conditions: mouse, N2a (ECACC) neuroblastoma cells; read-out: Cell viability (MTT test), % respect to controls
Experimental: as §1, §2, §3

[4] = in the presence of Aβ42 AP 3 μM (OLE 2 µM; GST 3 µM)
[5] = substance(s) alone, no Aβ42 AP added (Aβ42 AP 3 μM; OLE 2 µM; GST 3 µM)

Row | SMILES | Comparison of the results among glycated oleuropein, oleuropein aglycone and hydroxytyrosol [2] | Comparison of the results among the glutathione thioesters used (cell viability, mTOR P, ACi) ([2]; N2a cells, 48 h) | other results
1 | C/C=C1/C(O)OC=C(C(=O)OC)[C@H]1CC(=O)OCCc1ccc(O)c(O)c1 (mixture of isomers) [OLE, oleuropein aglycone] | No significant differences | – | mTOR P, % respect to controls (mTOR; [4]): 69%; mTOR P, % respect to controls (mTOR; [5]): 12* %; ACi, mmol/L GSH Equivalent [1, 4]: 1.55* mmol/L GSH Equivalent; ACi, mmol/L GSH Equivalent [1, 5]: 2.68 mmol/L GSH Equivalent; Cell viability (MTT test), % respect to controls ([2]; N2a cells, 48 h, in the presence of Aβ42 AP 3 μM (OLE 2 µM; GST 3 µM)): 65* %; viability at 48 h, 2 µM [3]: 98%
2 | CC/C=C\C/C=C\C/C=C\C/C=C\C/C=C\C/C=C\CCC(=O)SC[C@H](NC(=O)CC[C@H](N)C(=O)O)C(=O)NCC(=O)O [S-docohexaenoyl-glutathione] | – | equivalent results | –
3 | CC/C=C\C/C=C\C/C=C\CCCCCCCC(=O)SCC(NC(=O)CCC(N)C(=O)O)C(=O)NCC(=O)O (stereo not drawn) [S-linolenoyl-glutathione] | – | equivalent results | –
4 | CCCCC/C=C\C/C=C\CCCCCCCCSC[C@H](NC(=O)CC[C@H](N)C(=O)O)C(=O)NCC(=O)O [S-linoleyl-glutathione] | – | equivalent results | –
5 | CCCCCCCC/C=C\CCCCCCCCSC[C@H](NC(=O)CC[C@H](N)C(=O)O)C(=O)NCC(=O)O [S-oleyl-glutathione] | – | equivalent results | –
6 | C/C=C1/[C@H](O[C@@H]2O[C@H](CO)[C@@H](O)[C@H](O)[C@H]2O)OC=C(C(=O)OC)[C@H]1CC(=O)OCCc1ccc(O)c(O)c1 [glycated oleuropein, oleuropein] | No significant differences | – | –
